Results as given in patent US9999620B2, “CaMKK-β as a target for treating cancer” (Duke University, priority 2010, dated 2018).

What was measured:
Type in all cases: cell-based, human
LNCaP cells [1] = experiment: Boyden dual chamber migration assay; details: 1 h +/-30 mM STO-609, overnight +/-10 nM R1881, 16 h migration, 5% FBS chemoattractant
Description: FIG. 7. CaMKKβ activity in the androgen-mediated migration and invasion of prostate cancer cells. A, LNCaP cells were plated in 96-well plates and grown for 3 d. […] On d 10, cells were lysed and the relative number of cells was measured with the fluorescent DNA binding dye FluoReporter Blue. Each sample was performed in triplicate, and results from a representative experiment are shown. […] Cells were then dissociated and reseeded into the top chamber for a Boyden migration or Matrigel extracellular matrix invasion assay. Fresh medium with the corresponding treatments was added to the top and bottom chambers while either no chemoattractant or 5% FBS (serum) was added to the bottom chamber. After 16 h, migrated cells were fixed, stained and counted in three different microscopic fields and added together. […] C top, LNCaP cells were transfected with indicated siRNAs. […] D right, LNCaP cells stably expressing either GAL4 (control) or CaMKKβ were subjected to a migration assay as described in B using +/-5% FBS as chemoattractant. The results are expressed as mean+SE (n=3). *, significant changes from LNCaP-GAL4 cells. D left, western blot confirming CaMKKβ […]expression. FIG. 11. Androgen-mediated migration occurs through a CaMKKβ-AMPK-dependent pathway. […] Results are expressed as fold induction/phosphorylation over double vehicle-treated cells+SE (n=3). *, significant changes from vehicle-treated cells. […] Results are expressed as fold induction/phosphorylation over LNCaP-GAL4 vehicle-treated cells+SE (n=3). *, significant changes from LNCaP-GAL4 vehicle-treated cells. […] The results are expressed as mean±SE (n=2). *, P<0.05 indicates significant changes from double vehicle-treated cells. ^#, P<0.05 indicates significant decreases from vehicle (no compound C)-treated cells. […] ACC is a direct target of AMPK and thus, was used as a readout of AMPK catalytic activity. […] Results are expressed as fold induction/phosphorylation over double vehicle-treated cells+SE (n=2). *, P<0.05 indicates significant changes from double vehicle-treated cells. […]

LNCaP cells [2] = experiment: Cell proliferation assay (FluoReporter Blue DNA content); details: +/-1 nM R1881 and +/-30 mM STO-609 on d 3, d 5, d 7, read on d 10
Description: FIG. 7. CaMKKβ activity in the androgen-mediated migration and invasion of prostate cancer cells. A, LNCaP cells were plated in 96-well plates and grown for 3 d. […] On d 10, cells were lysed and the relative number of cells was measured with the fluorescent DNA binding dye FluoReporter Blue. Each sample was performed in triplicate, and results from a representative experiment are shown. […] Cells were then dissociated and reseeded into the top chamber for a Boyden migration or Matrigel extracellular matrix invasion assay. Fresh medium with the corresponding treatments was added to the top and bottom chambers while either no chemoattractant or 5% FBS (serum) was added to the bottom chamber. After 16 h, migrated cells were fixed, stained and counted in three different microscopic fields and added together. […] C top, LNCaP cells were transfected with indicated siRNAs. […] D right, LNCaP cells stably expressing either GAL4 (control) or CaMKKβ were subjected to a migration assay as described in B using +/−5% FBS as chemoattractant. The results are expressed as mean+SE (n=3). *, significant changes from LNCaP-GAL4 cells. D left, western blot confirming CaMKKβ […]expression. […] Proliferation assays were performed as previously described (12) by measuring the cellular DNA content using the FluoReporter Blue Fluorometric double-stranded DNA Quantitation Kit (Invitrogen) as per the manufacturer's protocol.

[3] = tested on: CaMKI phosphorylation (T177) by CaMKKβ; experiment: Western blot of phospho-CaMKI (readout of CaMKKβ activity); details: for androgen-increased phosphorylation of CaMKI (T177): STO-609 pretreatment
Description: A, LNCaP cells were pretreated for 1 h with vehicle, 10 or 30 mM STO-609 prior to overnight treatment with vehicle, 100 pM or 10 nM R1881. Cell lysates were then subjected to western blot analysis and subsequent densitometry (right). Phospho-CaMKI (p-CaMKI) levels were normalized to total CaMKI. Results are expressed as fold induction/phosphorylation over double vehicle-treated cells+SE (n=2). *, P<0.05 indicates significant changes from vehicle-treated cells. ^#, P<0.05 indicates significant changes from vehicle (no STO-609)-treated cells.
A, LNCaP cells were pretreated for 1 h+/−30 mM STO-609 prior to overnight treatment+/−10 nM R1881. Cell lysates were then subjected to western blot analysis and subsequent densitometry (right). CaMKKβ levels were normalized to GAPDH. Phospho-CaMKI (p-CaMKI) levels were normalized to total CaMKI. Phospho-AMPK (p-AMPK) levels were normalized to total AMPK. Results are expressed as fold induction/phosphorylation over double vehicle-treated cells+SE (n=3). *, significant changes from vehicle-treated cells.

[4] = tested on: AMPK phosphorylation (T172) by CaMKKβ; experiment: Western blot of phospho-AMPK; details: STO-609 pretreatment
Description: A, LNCaP cells were pretreated for 1 h+/−30 mM STO-609 prior to overnight treatment+/−10 nM R1881. Cell lysates were then subjected to western blot analysis and subsequent densitometry (right). CaMKKβ levels were normalized to GAPDH. Phospho-CaMKI (p-CaMKI) levels were normalized to total CaMKI. Phospho-AMPK (p-AMPK) levels were normalized to total AMPK. Results are expressed as fold induction/phosphorylation over double vehicle-treated cells+SE (n=3). *, significant changes from vehicle-treated cells. B, LNCaP cells stably expressing either GAL4 or CaMKKβ □were treated overnight+/−10 nM R1881. Cell lysates were then subjected as in A to western blot analysis and densitometry (right). Results are expressed as fold induction/phosphorylation over LNCaP-GAL4 vehicle-treated cells+SE (n=3). *, significant changes from LNCaP-GAL4 vehicle-treated cells. […]
A, VCaP cells were treated for 24 h+/−10 nM R1881. […] Results are expressed as fold induction/phosphorylation over vehicle-treated cells+SE (n=2). *, P<0.05 indicates significant changes from vehicle-treated cells. […]
Western blot analysis. […] For each sample, protein levels were determined by densitometry using the ImageJ software (NIH) and normalizing to indicated controls.

With `O=C(O)c1ccc2c3c1cccc3c(=O)n1c3ccccc3nc21` [STO-609] the androgen-mediated migration (LNCaP cells [1]) was “blocked the androgen-mediated migration”, the “effect on cell number (androgen-mediated cellular growth)” value (LNCaP cells [2]) was “no significant effect” and the “CaMKKβ activity (phospho-CaMKI levels)” value ([3]; LNCaP, 1 h pretreatment with 10 or 30 mM STO-609, then overnight 100 pM or 10 nM R1881) was “suppressed CaMKKβ activity”. The “androgen-increased phosphorylation of CaMKI (T177)” value ([3]; LNCaP, 10 nM R1881) was “reversed”, the “androgen-increased phosphorylation of CaMKI (T177)” value ([3]; VCaP) was “reversed” and the “androgen-increased phosphorylation of AMPK (T172)” value ([4]; LNCaP, 10 nM R1881) was “reversed”. The “androgen-increased phosphorylation of AMPK (T172)” value ([4]; VCaP) was “reversed”.
